Reference: US10479780B2, “Aminopyrazole derivatives” (Chugai Seiyaku Kabushiki Kaisha, priority 2015, dated 2019)

How the values were obtained:
Type in all cases: biochemical
[1] = target: T1, human Yes1 enzyme (Homo sapiens, UniProt P07947); test: Yes1 enzyme inhibitory activity (time-resolved fluorometry, biotinylated peptide phosphorylation); settings: biotinylated peptide phosphorylation, read-out: YES_IC50
T1 construct: made in house
How it was run: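 Inhibition was expressed against a compound-free control to give IC50, using TR-FRET read-out (Eu-cryptate anti-pTyr antibody, streptavidin-XL665).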

[2] = target: T2, human Src enzyme (Homo sapiens, UniProt P12931); test: Src enzyme inhibitory activity (time-resolved fluorometry, biotinylated peptide phosphorylation); settings: biotinylated peptide phosphorylation, read-out: SRC_IC50
T2 construct: purchased Carna Biosciences, Inc. 08-173
T2 sequence (P12931 whole entry): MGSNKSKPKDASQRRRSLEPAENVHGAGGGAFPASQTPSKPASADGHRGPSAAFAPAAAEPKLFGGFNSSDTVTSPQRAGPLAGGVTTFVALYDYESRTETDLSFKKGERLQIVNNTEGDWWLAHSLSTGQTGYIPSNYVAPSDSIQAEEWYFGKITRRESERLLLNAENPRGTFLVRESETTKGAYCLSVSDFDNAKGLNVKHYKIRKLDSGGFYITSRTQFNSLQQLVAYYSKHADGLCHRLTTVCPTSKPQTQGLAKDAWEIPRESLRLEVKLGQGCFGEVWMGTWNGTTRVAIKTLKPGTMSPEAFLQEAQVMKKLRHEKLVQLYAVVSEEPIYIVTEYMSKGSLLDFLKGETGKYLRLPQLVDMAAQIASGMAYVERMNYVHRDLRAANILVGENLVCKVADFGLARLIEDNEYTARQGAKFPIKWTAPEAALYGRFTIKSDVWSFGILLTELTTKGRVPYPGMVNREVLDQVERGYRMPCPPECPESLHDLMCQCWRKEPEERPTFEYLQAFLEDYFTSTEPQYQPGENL
How it was run: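 Compounds were tested for blocking tyrosine phosphorylation of a biotinylated peptide substrate by recombinant human Src. Phosphorylated product was quantified by time-resolved fluorometry using europium cryptate and XL665 conjugates, and IC50 was calculated against the compound-free control.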

[3] = target: T3, human Lck enzyme (Homo sapiens, UniProt P06239); test: Lck enzyme inhibitory activity (time-resolved fluorometry, biotinylated peptide phosphorylation); settings: biotinylated peptide phosphorylation, read-out: LCK_IC50
T3 construct: purchased Carna Biosciences, Inc. 08-170
T3 sequence (P06239 whole entry): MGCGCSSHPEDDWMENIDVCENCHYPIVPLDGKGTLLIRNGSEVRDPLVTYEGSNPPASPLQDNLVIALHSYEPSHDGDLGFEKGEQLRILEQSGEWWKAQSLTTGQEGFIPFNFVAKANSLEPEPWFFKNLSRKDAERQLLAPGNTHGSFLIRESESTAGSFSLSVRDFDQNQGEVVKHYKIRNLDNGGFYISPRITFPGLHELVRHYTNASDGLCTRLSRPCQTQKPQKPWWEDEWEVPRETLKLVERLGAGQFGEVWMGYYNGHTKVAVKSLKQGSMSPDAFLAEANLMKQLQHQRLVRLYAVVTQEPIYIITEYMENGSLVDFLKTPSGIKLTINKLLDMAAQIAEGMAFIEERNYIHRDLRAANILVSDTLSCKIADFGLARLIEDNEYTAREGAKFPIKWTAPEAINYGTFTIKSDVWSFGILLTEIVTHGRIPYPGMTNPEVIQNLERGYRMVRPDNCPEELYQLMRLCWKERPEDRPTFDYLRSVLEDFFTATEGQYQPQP
How it was run: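 Readout pairs a europium cryptate-labelled anti-phosphotyrosine antibody with XL665-streptavidin, measured by time-resolved fluorescence. IC50 derived from percent inhibition against untreated controls.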

T1 sequence (P07947 whole entry): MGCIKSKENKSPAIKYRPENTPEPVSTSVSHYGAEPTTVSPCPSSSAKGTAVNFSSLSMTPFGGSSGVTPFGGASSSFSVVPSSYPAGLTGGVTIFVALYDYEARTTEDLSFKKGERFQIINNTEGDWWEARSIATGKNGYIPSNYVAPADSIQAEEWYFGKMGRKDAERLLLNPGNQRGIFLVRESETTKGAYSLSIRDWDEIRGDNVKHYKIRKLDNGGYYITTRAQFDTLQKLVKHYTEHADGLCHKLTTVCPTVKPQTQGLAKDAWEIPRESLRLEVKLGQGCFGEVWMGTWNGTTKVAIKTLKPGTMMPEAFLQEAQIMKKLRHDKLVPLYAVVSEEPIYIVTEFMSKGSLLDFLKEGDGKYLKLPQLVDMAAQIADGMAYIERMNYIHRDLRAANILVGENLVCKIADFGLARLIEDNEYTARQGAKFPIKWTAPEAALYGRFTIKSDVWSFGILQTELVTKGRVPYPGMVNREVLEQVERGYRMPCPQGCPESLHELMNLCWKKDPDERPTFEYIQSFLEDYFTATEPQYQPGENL

Row | IC50 [1] [nM] | IC50 [2] [nM] | IC50 [3] [nM] | SMILES
1 | 1.5 | 62 | 15 | Cc1cc2cc(C(=O)c3cnn(-c4ccc(Oc5cccc(F)c5F)cc4C)c3N)[nH]c2cc1NS(C)(=O)=O [Example 4-2-054, N-[2-[5-amino-1-[4-(2,3-difluorophenoxy)-2-methylphenyl]pyrazole-4-carbonyl]-5-methyl-1H-indol-6-yl]methanesulfonamide]
2 | 3 | 65 | 26 | Cc1cc2cc(C(=O)c3cnn(-c4c(C)cc(Oc5ccccc5F)cc4F)c3N)[nH]c2cc1NS(C)(=O)=O [Example 4-2-055, N-[2-[5-amino-1-[2-fluoro-4-(2-fluorophenoxy)-6-methylphenyl]pyrazole-4-carbonyl]-5-methyl-1H-indol-6-yl]methanesulfonamide]
3 | 3.9 | 97 | 24 | Cc1cc2cc(C(=O)c3cnn(-c4c(C)cc(Oc5cccc(F)c5F)cc4F)c3N)[nH]c2cc1NS(C)(=O)=O [Example 4-2-056, N-[2-[5-amino-1-[4-(2,3-difluorophenoxy)-2-fluoro-6-methylphenyl]pyrazole-4-carbonyl]-5-methyl-1H-indol-6-yl]methanesulfonamide]
4 | 4.3 | 140 | 27 | Cc1cc2cc(C(=O)c3cnn(-c4c(C)cc(Oc5cc(F)ccc5F)cc4F)c3N)[nH]c2cc1NS(C)(=O)=O [Example 4-2-057, N-[2-[5-amino-1-[4-(2,5-difluorophenoxy)-2-fluoro-6-methylphenyl]pyrazole-4-carbonyl]-5-methyl-1H-indol-6-yl]methanesulfonamide]
5 | 4 | 180 | 69 | Cc1cc2cc(C(=O)c3cnn(-c4c(C)cc(Oc5ccccc5Cl)cc4F)c3N)[nH]c2cc1NS(C)(=O)=O [Example 4-2-058, N-[2-[5-amino-1-[4-(2-chlorophenoxy)-2-fluoro-6-methylphenyl]pyrazole-4-carbonyl]-5-methyl-1H-indol-6-yl]methanesulfonamide]
6 | 7.7 | 390 | 110 | Cc1cc2cc(C(=O)c3cnn(-c4c(C)cc(Oc5cccc(Cl)c5)cc4F)c3N)[nH]c2cc1NS(C)(=O)=O [Example 4-2-059, N-[2-[5-amino-1-[4-(3-chlorophenoxy)-2-fluoro-6-methylphenyl]pyrazole-4-carbonyl]-5-methyl-1H-indol-6-yl]methanesulfonamide]
7 | 2 | 58 | 15 | Cc1cc2cc(C(=O)c3cnn(-c4c(C)cc(Oc5ccccc5)cc4F)c3N)[nH]c2cc1NS(C)(=O)=O [Example 4-2-060, N-[2-[5-amino-1-(2-fluoro-6-methyl-4-phenoxyphenyl)pyrazole-4-carbonyl]-5-methyl-1H-indol-6-yl]methanesulfonamide]
8 | 0.52 | 31 | 6.5 | Cc1cc2cc(C(=O)c3cnn(-c4cnc(Oc5ccccc5F)cc4C)c3N)[nH]c2cc1NS(C)(=O)=O [Example 4-2-061, N-(2-(5-Amino-1-(6-(2-fluorophenoxy)-4-methylpyridin-3-yl)-1H-pyrazole-4-carbonyl)-5-methyl-1H-indol-6-yl)methanesulfonamide]
9 | 3.2 | 130 | 21 | Cc1cc2cc(C(=O)c3cnn(-c4cnc(Oc5cccc(F)c5F)cc4C)c3N)[nH]c2cc1NS(C)(=O)=O [Example 4-2-062, N-[2-[5-amino-1-[6-(2,3-difluorophenoxy)-4-methylpyridin-3-yl]pyrazole-4-carbonyl]-5-methyl-1H-indol-6-yl]methanesulfonamide]
10 | 2 | 78 | 8.3 | Cc1cc2cc(C(=O)c3cnn(-c4cnc(Oc5ccccc5Cl)cc4C)c3N)[nH]c2cc1NS(C)(=O)=O [Example 4-2-063, N-[2-[5-amino-1-[6-(2-chlorophenoxy)-4-methylpyridin-3-yl]pyrazole-4-carbonyl]-5-methyl-1H-indol-6-yl]methanesulfonamide]
11 | 2.4 | 63 | 14 | Cc1cc2cc(C(=O)c3cnn(-c4cnc(Oc5c(F)cccc5Cl)cc4C)c3N)[nH]c2cc1NS(C)(=O)=O [Example 4-2-064, N-[2-[5-amino-1-[6-(2-chloro-6-fluorophenoxy)-4-methylpyridin-3-yl]pyrazole-4-carbonyl]-5-methyl-1H-indol-6-yl]methanesulfonamide]
12 | 2.2 | 44 | 18 | Cc1cc2cc(C(=O)c3cnn(-c4cnc(Oc5ccccc5C)cc4C)c3N)[nH]c2cc1NS(C)(=O)=O [Example 4-2-065, N-[2-[5-amino-1-[4-methyl-6-(2-methylphenoxy)pyridin-3-yl]pyrazole-4-carbonyl]-5-methyl-1H-indol-6-yl]methanesulfonamide]
13 | 9.4 | 160 | 36 | Cc1cc2cc(C(=O)c3cnn(-c4cnc(Oc5cccc(Cl)c5)cc4C)c3N)[nH]c2cc1NS(C)(=O)=O [Example 4-2-066, N-[2-[5-amino-1-[6-(3-chlorophenoxy)-4-methylpyridin-3-yl]pyrazole-4-carbonyl]-5-methyl-1H-indol-6-yl]methanesulfonamide]
14 | 6.3 | 97 | 59 | Cc1cc2cc(C(=O)c3cnn(-c4cnc(Oc5ccc(F)cc5)cc4C)c3N)[nH]c2cc1NS(C)(=O)=O [Example 4-2-067, N-[2-[5-amino-1-[6-(4-fluorophenoxy)-4-methylpyridin-3-yl]pyrazole-4-carbonyl]-5-methyl-1H-indol-6-yl]methanesulfonamide]
15 | 1.8 | 28 | 21 | Cc1cc2cc(C(=O)c3cnn(-c4ccc(Oc5ccccc5F)cc4C)c3N)[nH]c2cc1NS(=O)(=O)CCCF [Example 4-2-068, N-[2-[5-amino-1-[4-(2-fluorophenoxy)-2-methylphenyl]pyrazole-4-carbonyl]-5-methyl-1H-indol-6-yl]-3-fluoropropane-1-sulfonamide]
16 | 1 | 67 | 22 | Cc1cc2cc(C(=O)c3cnn(-c4ccc(Oc5cccc(F)c5F)cc4C)c3N)[nH]c2cc1NS(=O)(=O)CCCF [Example 4-2-069, N-[2-[5-amino-1-[4-(2,3-difluorophenoxy)-2-methylphenyl]pyrazole-4-carbonyl]-5-methyl-1H-indol-6-yl]-3-fluoropropane-1-sulfonamide]
17 | 7.6 | 140 | 47 | Cc1cc2cc(C(=O)c3cnn(-c4c(C)cc(Oc5ccccc5F)cc4F)c3N)[nH]c2cc1NS(=O)(=O)CCCF [Example 4-2-070, N-[2-[5-amino-1-[2-fluoro-4-(2-fluorophenoxy)-6-methylphenyl]pyrazole-4-carbonyl]-5-methyl-1H-indol-6-yl]-3-fluoropropane-1-sulfonamide]
18 | 12 | 160 | 78 | Cc1cc2cc(C(=O)c3cnn(-c4c(C)cc(Oc5cccc(F)c5F)cc4F)c3N)[nH]c2cc1NS(=O)(=O)CCCF [Example 4-2-071, N-[2-[5-amino-1-[4-(2,3-difluorophenoxy)-2-fluoro-6-methylphenyl]pyrazole-4-carbonyl]-5-methyl-1H-indol-6-yl]-3-fluoropropane-1-sulfonamide]
19 | 1.8 | 88 | 20 | Cc1cc2cc(C(=O)c3cnn(-c4cnc(Oc5ccccc5F)cc4C)c3N)[nH]c2cc1NS(=O)(=O)CCCF [Example 4-2-072, N-[2-[5-amino-1-[6-(2-fluorophenoxy)-4-methylpyridin-3-yl]pyrazole-4-carbonyl]-5-methyl-1H-indol-6-yl]-3-fluoropropane-1-sulfonamide]
20 | 3.1 | 37 | 19 | Cc1cc2cc(C(=O)c3cnn(-c4cnc(Oc5c(F)cccc5F)cc4C)c3N)[nH]c2cc1NS(=O)(=O)CCCF [Example 4-2-073, N-[2-[5-amino-1-[6-(2,6-difluorophenoxy)-4-methylpyridin-3-yl]pyrazole-4-carbonyl]-5-methyl-1H-indol-6-yl]-3-fluoropropane-1-sulfonamide]
21 | 2.7 | 71 | 27 | Cc1cc2cc(C(=O)c3cnn(-c4cnc(Oc5ccccc5Cl)cc4C)c3N)[nH]c2cc1NS(=O)(=O)CCCF [Example 4-2-074, N-[2-[5-amino-1-[6-(2-chlorophenoxy)-4-methylpyridin-3-yl]pyrazole-4-carbonyl]-5-methyl-1H-indol-6-yl]-3-fluoropropane-1-sulfonamide]
22 | 10 | 170 | 110 | Cc1cc2cc(C(=O)c3cnn(-c4cnc(Oc5cccc(Cl)c5)cc4C)c3N)[nH]c2cc1NS(=O)(=O)CCCF [Example 4-2-075, N-[2-[5-amino-1-[6-(3-chlorophenoxy)-4-methylpyridin-3-yl]pyrazole-4-carbonyl]-5-methyl-1H-indol-6-yl]-3-fluoropropane-1-sulfonamide]
23 | 18 | 130 | 62 | Cc1cc2cc(C(=O)c3cnn(-c4cnc(Oc5ccc(F)cc5)cc4C)c3N)[nH]c2cc1NS(=O)(=O)CCCF [Example 4-2-076, N-[2-[5-amino-1-[6-(4-fluorophenoxy)-4-methylpyridin-3-yl]pyrazole-4-carbonyl]-5-methyl-1H-indol-6-yl]-3-fluoropropane-1-sulfonamide]
24 | 0.64 | 25 | 4.3 | Cc1cc(Oc2ccccc2F)ccc1-n1ncc(C(=O)c2cc3cc(Cl)c(NS(C)(=O)=O)cc3[nH]2)c1N [Example 4-2-077, N-[2-[5-amino-1-[4-(2-fluorophenoxy)-2-methylphenyl]pyrazole-4-carbonyl]-5-chloro-1H-indol-6-yl]methanesulfonamide]
